The source of these data is patent US20240132473A1, “SULFOXIMIDE SUBSTITUTED INDAZOLE IRAK4 KINASE INHIBITOR, PREPARATION METHOD THEREOF AND USE THEREOF” (Shanghai Xunhe Pharmaceutical Technology Co. Ltd., priority 2021, published 2024).

What is called IC50 is the concentration at which inhibition is half-maximal. A word on the half-life: it is the time in which the quantity being followed falls by half. Read a high half-life as slow loss. A word on the AUC(0-t): it is exposure summed from dosing to a finite time, without extrapolation to infinity. Lower therefore signals less exposure. Usually Cmax stands for the maximum level reached in the sampled fluid or tissue. Broadly, the Tmax is the time from dosing to the highest level.

In data set [1] the target is IRAK4 kinase (Homo sapiens (Human), UniProt Q9NWZ3). Put plainly: IRAK4 kinase inhibitory activity assay (mobility shift assay, Km ATP). It is filed as biochemical. The following applies: MSA, ATP 37 μM (Km ATP). As to the method: The inhibitory activity (IC50) of the compound on IRAK4 kinase under Km ATP was detected by mobility shift assay (MSA). Ten drug concentration gradients were set (initial concentration 1 μM, 3-fold dilution, 2 duplicate wells per concentration). […] After incubation at 28° C. for a period of time, 10 μL of termination buffer was added to terminate the reaction. The conversion rate data was read with Caliper, and then the conversion rate was converted into inhibition rate data. According to the inhibition rate data of each concentration, the IC50 of half inhibitory concentration was calculated by Logit method (Table 3).
Sequence of IRAK4 kinase (Q9NWZ3 whole entry): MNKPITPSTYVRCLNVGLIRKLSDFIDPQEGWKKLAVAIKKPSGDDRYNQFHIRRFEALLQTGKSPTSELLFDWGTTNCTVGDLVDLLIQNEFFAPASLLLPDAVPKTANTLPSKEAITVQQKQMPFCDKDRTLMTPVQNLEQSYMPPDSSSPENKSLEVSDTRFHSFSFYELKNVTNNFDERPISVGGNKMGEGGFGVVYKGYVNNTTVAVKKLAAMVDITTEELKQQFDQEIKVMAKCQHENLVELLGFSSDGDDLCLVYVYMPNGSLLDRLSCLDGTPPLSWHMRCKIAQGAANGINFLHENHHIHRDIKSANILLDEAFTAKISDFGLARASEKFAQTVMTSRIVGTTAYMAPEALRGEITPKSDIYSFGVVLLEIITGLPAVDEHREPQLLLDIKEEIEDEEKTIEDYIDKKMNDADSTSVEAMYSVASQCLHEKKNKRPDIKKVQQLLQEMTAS

Data set [2] relates to TNF-α secretion in THP-1 cells. Put plainly: Inhibition of LPS-stimulated TNF-α secretion in THP-1 cells (ELISA). The following applies: Homo sapiens, LPS 1 μg/mL, 4.5 hours. In kind it is cell-based. As for the experimental part: TNF-α is a key cytokine involved in the inflammatory process of the listed autoimmune disease, such as rheumatoid arthritis, psoriatic arthritis, ankylosing spondylitis, psoriasis, Crohn's disease, ulcerative colitis, etc. In this test, TNF-α secretion was triggered by incubation with bacterial lipopolysaccharides (LPS). […] The 96-well plate was rotated at 2000 rpm for 5 minutes, and then 50 μL of supernatant was taken. The content of TNF-α in the supernatant was determined by human ELISA kit, and IC50 value of the compound was calculated by XL-Fit (table 4).
For orientation: In an ELISA, binding on a coated surface is turned into a signal by an enzyme label.

Data set [3] in a line: in vivo. The following applies: rat, po. As to the method:
SD rats were used as the test animals.
Standard curve and preparation and processing of quality control samples:
Stock solution was diluted with 50% acetonitrile-water to obtain standard working solutions of 0.04, 0.10, 0.20, 0.40, 1.00, 2.00, 4.00 μg/mL, and quality control working solutions of 0.10, 1.00, 3.00 μg/mL. […] 200 μL of acetonitrile (containing 5 ng/mL of the internal standard loratadine) was added. After the vortex oscillation for 3 minutes, the solutions were centrifuged at 15000 rpm at 4° C. for 15 minutes. 100 μL of the supernatant was taken for LC-MS/MS analysis. WinNonlin ® 8.0 was used to calculate the experimental results.

For the compound `COc1cc2nn(CCS(=N)(=O)c3nccs3)cc2cc1NC(=O)c1cccc(C(F)(F)F)n1` (centres unmarked) [Compound I-35], the IC50 in data set [1] and in data set [2] was 0.7 nM throughout.
In the case of `N=S(=O)(CCn1cc2cc(NC(=O)c3cccc(C(F)(F)F)n3)c(N3CCOCC3)cc2n1)c1ccnc2ccccc12` (centres unmarked) [Compound I-11], the values for the IC50 in data set [1] and in data set [2] were 0.5 nM and 0.8 nM, respectively.
For the compound `N=S(=O)(CCn1cc2cc(NC(=O)c3cnn4cccnc34)c(N3CCOCC3)cc2n1)c1ncccn1` (centres unmarked) [Compound I-33], the half-maximal inhibitory concentration (IC50) in data set [1] was 0.4 nM; in data set [2], 1.4 nM.
In data set [2], `COc1cc2nn(CCS(C)(=N)=O)cc2cc1NC(=O)c1cccc(C(F)(F)F)n1` (centres unmarked) [MY-004-103, reference compound] yielded an IC50 of 125 nM. In data set [3] (SD, in vivo), this compound gave a half-life of 1.4 h. Further, in data set [3] (plasma, 25 mg/kg), the area under the curve AUC(0-t) worked out at 734 ng·h/mL, the highest concentration (Cmax) was found to be 245 ng/mL and the time to peak (Tmax) was 1.4 h.
Turning to `CC(C)(O)c1cc2nn(CCS(=N)(=O)c3ccncc3)cc2cc1NC(=O)c1cccc(C(F)(F)F)n1` (centres unmarked) [Compound I-6], the IC50 in data set [1] was 0.2 nM; in data set [2], 0.6 nM.
In the same order, the values of `N=S(=O)(CCn1cc2cc(NC(=O)c3cccc(C(F)(F)F)n3)c(N3CCC(O)C3)cc2n1)c1ccnc2ccccc12` (centres unmarked) [Compound I-12] are 0.3 nM and 0.6 nM.
The like results for `N=S(=O)(CCn1cc2cc(NC(=O)c3cccc(C(F)(F)F)n3)c(N3CCOCC3)cc2n1)c1ccccc1` (centres unmarked) [Compound I-3] were, in that order, 0.6 nM and 0.6 nM.
Take `CC(C)(O)CCn1cc2cc(NC(=O)c3cccc(C(F)(F)F)n3)c(C(C)(C)O)cc2n1` [BAY-1830839, reference compound]: the peak level in data set [3] (in vivo, 25 mg/kg) (Cmax) was 223 ng/mL.
Still for that read-out and setting: under `CC(C)(O)c1cc2nn(CCS(C)(=O)=O)cc2cc1NC(=O)c1cccc(C(F)(F)F)n1` [BAY-1834845, reference compound] stands 201 ng/mL.
Regarding `Cc1cc2nn(CCS(=N)(=O)c3ccccc3)cc2cc1NC(=O)c1cccc(C(F)(F)F)n1` (centres unmarked) [Compound I-13], the results for the IC50 in data set [1] and in data set [2] were 0.4 nM and 1.1 nM, respectively.
The like results for `CN=S(=O)(CCn1cc2cc(NC(=O)c3cccc(C(F)(F)F)n3)c(OC)cc2n1)c1ccccc1` (centres unmarked) [Compound I-25] were, in that order, 0.5 nM and 1.2 nM.
In the same order, the values of `N=S(=O)(CCn1cc2cc(NC(=O)c3cccc(C(F)(F)F)n3)c(N3CCC(O)C3)cc2n1)c1ccncc1` (centres unmarked) [Compound I-8] are 0.6 nM and 0.9 nM.
The like results for `COc1cc2nn(CCS(=N)(=O)c3ccc(F)cc3)cc2cc1NC(=O)c1cccc(C(F)(F)F)n1` (centres unmarked) [Compound I-27] were, in that order, 0.7 nM and 1.3 nM.
For the compound `Cc1cc(-c2nc(C(=O)Nc3cc4cn(CCS(=N)(=O)c5ncccn5)nc4cc3C(C)(C)O)co2)ccn1` (centres unmarked) [Compound I-32], the 50% inhibitory concentration (IC50) turned out to be 0.5 nM in data set [1] and 1 nM in data set [2].
In the same order, the values of `Cc1cc(-c2nc(C(=O)Nc3cc4cn(CCS(=N)(=O)c5ccncc5)nc4cc3N3CCC(O)C3)co2)ccn1` (centres unmarked) [Compound I-18] are 0.4 nM and 1.4 nM.
Turning to `Cc1cc(-c2nc(C(=O)Nc3cc4cn(CCS(=N)(=O)c5ccccc5)nc4cc3N3CCOCC3)co2)ccn1` (centres unmarked) [Compound I-30], the IC50 in data set [1] was determined as 0.6 nM; in data set [2], 0.9 nM.
Turning to `CC(C)(O)c1cc2nn(CCS(=N)(=O)c3ccccc3)cc2cc1NC(=O)c1cnn2cccnc12` (centres unmarked) [Compound I-22], the results for the IC50 in data set [1] and in data set [2] were 0.3 nM and 0.8 nM, respectively.
In the same order, the values of `COc1cc2nn(CCS(=N)(=O)c3ccccn3)cc2cc1NC(=O)c1cccc(C(F)(F)F)n1` (centres unmarked) [Compound I-19] are 0.8 nM and 0.9 nM.
Turning to `N=S(=O)(CCn1cc2cc(NC(=O)c3cnn4cccnc34)c(N3CCOCC3)cc2n1)c1ccnc2ccccc12` (centres unmarked) [Compound I-23], the IC50 in data set [1] was determined as 0.4 nM; in data set [2] it was 1.1 nM.
As to `COc1cc2nn(CCS(=N)(=O)c3ccccc3)cc2cc1NC(=O)c1coc(-c2ccnc(C)c2)n1` (centres unmarked) [Compound I-28], the IC50 in data set [1] and in data set [2] was 0.7 nM in each case.
